Data taken from PMC9694544, “Conteltinib (CT-707) in patients with advanced ALK-positive non-small cell lung cancer: a multicenter, open-label, first-in-human phase 1 study” (BMC Medicine, 2022).

Test system: patients with ALK-positive NSCLC
Test: Phase 1 safety assessment (TRAEs by CTCAE 4.03, DLT, MTD, RP2D)
Type: in vivo, human
Description: In the dose-escalation phase, the dose was escalated sequentially from a low to a high level with a 3 + 3 dose-escalation scheme based on the modified Fibonacci method. The starting dose for conteltinib was 50 mg orally quaque die (QD). Dose escalation proceeded to the next six cohorts of 100 mg, 200 mg, 300 mg, 450 mg, 600 mg, and 800 mg QD. For each dose, there was a PK lead-in phase where a single dose was given 7 days before cycle 1 day 1. Then, each dose was taken continuously in a 28-day cycle. The first cycle was for dose-limiting toxicity (DLT) investigation. When one of three patients experienced a DLT in a dose cohort, three additional patients were enrolled in the same dose cohort to assess the dose level in a total of six patients. All patients received conteltinib until disease progression, unacceptable toxicity, or withdrawal of consent. Patients received follow-up safety assessments for 30 days (±7 days) after the last conteltinib dose.
In the dose-expansion phase, each dose was taken continuously in a 28-day cycle. At the end of each cycle, a safety evaluation was conducted. If patients met the criteria to enter the next cycle, treatment with conteltinib was continued for subsequent cycles. All patients received conteltinib until disease progression, unacceptable toxicity, or withdrawal of consent. Patients received follow-up safety assessments for 30 days (±7 days) after the last dose of conteltinib.
The safety of conteltinib was assessed in safety set (SS) which was based on the National Cancer Institute Common Terminology Criteria for Adverse Events (CTCAE) version 4.03, laboratory tests, vital signs, ECG, and clinical observations. […] Adverse events (AEs) were judged to be treatment-related or not by investigators.
DLTs were AEs occurring in the first cycle of treatment (28 days) that were attributed to conteltinib, and the criteria were grade 4 neutropenia lasting ≥ 7 days, febrile neutropenia, grade 3 thrombocytopenia, grade 3 non-hematologic toxicity, and any conteltinib-related toxicity resulting in treatment delay > 2 weeks or discontinuation of conteltinib treatment at the assigned dose level. Besides, grade 3 nausea, vomiting, or diarrhea for ≥ 3 days or grade 4 nausea, vomiting, or diarrhea of any duration was considered as a DLT. The MTD was defined as the dose of conteltinib that would be closest to but not higher than a 33% probability of a DLT.

COc1cc(N2CCC(N3CCN(C)CC3)CC2)ccc1Nc1nc2c(c(Nc3ccccc3S(=O)(=O)NC(C)C)n1)CCN2 [Conteltinib]
0 (0.0) n (%): TRAE ALT elevated (50 mg QD (n=2), Grade 1–2) | TRAE AST elevated (50 mg QD (n=2), Grade 1–2) | TRAE Abdominal pain (50 mg QD (n=2), Grade 1–2) | TRAE Abdominal pain upper (50 mg QD (n=2), Grade 1–2) | TRAE Appetite decreased (50 mg QD (n=2), Grade 1–2) | TRAE Conjugated bilirubin elevated (50 mg QD (n=2), Grade 1–2) | TRAE Hypercholesterolemia (50 mg QD (n=2), Grade 1–2) | TRAE Hyperglycemia (50 mg QD (n=2), Grade 1–2) | TRAE Hypertriglyceridemia (50 mg QD (n=2), Grade 1–2) | TRAE Hyperuricemia (50 mg QD (n=2), Grade 1–2) | TRAE Hypoalbuminemia (50 mg QD (n=2), Grade 1–2) | TRAE Nausea (50 mg QD (n=2), Grade 1–2) | TRAE Proteinuria (50 mg QD (n=2), Grade 1–2) | TRAE Serum creatinine elevated (50 mg QD (n=2), Grade 1–2) | TRAE Vomiting (50 mg QD (n=2), Grade 1–2) | TRAE Weight loss (50 mg QD (n=2), Grade 1–2) | TRAE γ-GGT elevated (50 mg QD (n=2), Grade 1–2) | Patients with any TRAE (50 mg QD (n=2), Grade ≥ 3) | TRAE ALT elevated (50 mg QD (n=2), Grade ≥ 3) | TRAE AST elevated (50 mg QD (n=2), Grade ≥ 3) | TRAE Abdominal pain (50 mg QD (n=2), Grade ≥ 3) | TRAE Abdominal pain upper (50 mg QD (n=2), Grade ≥ 3) | TRAE Appetite decreased (50 mg QD (n=2), Grade ≥ 3) | TRAE Conjugated bilirubin elevated (50 mg QD (n=2), Grade ≥ 3) | TRAE Diarrhea (50 mg QD (n=2), Grade ≥ 3) | TRAE Hypercholesterolemia (50 mg QD (n=2), Grade ≥ 3) | TRAE Hyperglycemia (50 mg QD (n=2), Grade ≥ 3) | TRAE Hypertriglyceridemia (50 mg QD (n=2), Grade ≥ 3) | TRAE Hyperuricemia (50 mg QD (n=2), Grade ≥ 3) | TRAE Hypoalbuminemia (50 mg QD (n=2), Grade ≥ 3) | TRAE Nausea (50 mg QD (n=2), Grade ≥ 3) | TRAE Proteinuria (50 mg QD (n=2), Grade ≥ 3) | TRAE Serum creatinine elevated (50 mg QD (n=2), Grade ≥ 3) | TRAE Vomiting (50 mg QD (n=2), Grade ≥ 3) | TRAE Weight loss (50 mg QD (n=2), Grade ≥ 3) | TRAE γ-GGT elevated (50 mg QD (n=2), Grade ≥ 3) | TRAE Abdominal pain (100 mg QD (n=8), Grade 1–2) | TRAE Appetite decreased (100 mg QD (n=8), Grade 1–2) | TRAE Diarrhea (100 mg QD (n=8), Grade 1–2) | TRAE Hypoalbuminemia (100 mg QD (n=8), Grade 1–2) | TRAE Proteinuria (100 mg QD (n=8), Grade 1–2) | TRAE Weight loss (100 mg QD (n=8), Grade 1–2) | TRAE γ-GGT elevated (100 mg QD (n=8), Grade 1–2) | Patients with any TRAE (100 mg QD (n=8), Grade ≥ 3) | TRAE ALT elevated (100 mg QD (n=8), Grade ≥ 3) | TRAE AST elevated (100 mg QD (n=8), Grade ≥ 3) | TRAE Abdominal pain (100 mg QD (n=8), Grade ≥ 3) | TRAE Abdominal pain upper (100 mg QD (n=8), Grade ≥ 3) | TRAE Appetite decreased (100 mg QD (n=8), Grade ≥ 3) | TRAE Conjugated bilirubin elevated (100 mg QD (n=8), Grade ≥ 3) | TRAE Diarrhea (100 mg QD (n=8), Grade ≥ 3) | TRAE Hypercholesterolemia (100 mg QD (n=8), Grade ≥ 3) | TRAE Hyperglycemia (100 mg QD (n=8), Grade ≥ 3) | TRAE Hypertriglyceridemia (100 mg QD (n=8), Grade ≥ 3) | TRAE Hyperuricemia (100 mg QD (n=8), Grade ≥ 3) | TRAE Hypoalbuminemia (100 mg QD (n=8), Grade ≥ 3) | TRAE Nausea (100 mg QD (n=8), Grade ≥ 3) | TRAE Proteinuria (100 mg QD (n=8), Grade ≥ 3) | TRAE Serum creatinine elevated (100 mg QD (n=8), Grade ≥ 3) | TRAE Vomiting (100 mg QD (n=8), Grade ≥ 3) | TRAE Weight loss (100 mg QD (n=8), Grade ≥ 3) | TRAE γ-GGT elevated (100 mg QD (n=8), Grade ≥ 3) | TRAE ALT elevated (200 mg QD (n=3), Grade 1–2) | TRAE Abdominal pain (200 mg QD (n=3), Grade 1–2) | TRAE Abdominal pain upper (200 mg QD (n=3), Grade 1–2) | TRAE Appetite decreased (200 mg QD (n=3), Grade 1–2) | TRAE Conjugated bilirubin elevated (200 mg QD (n=3), Grade 1–2) | TRAE Diarrhea (200 mg QD (n=3), Grade 1–2) | TRAE Hypercholesterolemia (200 mg QD (n=3), Grade 1–2) | TRAE Hyperglycemia (200 mg QD (n=3), Grade 1–2) | TRAE Hypertriglyceridemia (200 mg QD (n=3), Grade 1–2) | TRAE Hypoalbuminemia (200 mg QD (n=3), Grade 1–2) | TRAE Nausea (200 mg QD (n=3), Grade 1–2) | TRAE Proteinuria (200 mg QD (n=3), Grade 1–2) | TRAE Serum creatinine elevated (200 mg QD (n=3), Grade 1–2) | TRAE Vomiting (200 mg QD (n=3), Grade 1–2) | TRAE Weight loss (200 mg QD (n=3), Grade 1–2) | TRAE γ-GGT elevated (200 mg QD (n=3), Grade 1–2) | Patients with any TRAE (200 mg QD (n=3), Grade ≥ 3) | TRAE ALT elevated (200 mg QD (n=3), Grade ≥ 3) | TRAE AST elevated (200 mg QD (n=3), Grade ≥ 3)
2 (25.0) n (%): TRAE AST elevated (100 mg QD (n=8), Grade 1–2) | TRAE Serum creatinine elevated (100 mg QD (n=8), Grade 1–2)
1 (12.5) n (%): TRAE ALT elevated (100 mg QD (n=8), Grade 1–2) | TRAE Abdominal pain upper (100 mg QD (n=8), Grade 1–2) | TRAE Conjugated bilirubin elevated (100 mg QD (n=8), Grade 1–2) | TRAE Hypercholesterolemia (100 mg QD (n=8), Grade 1–2) | TRAE Hyperglycemia (100 mg QD (n=8), Grade 1–2) | TRAE Hypertriglyceridemia (100 mg QD (n=8), Grade 1–2) | TRAE Hyperuricemia (100 mg QD (n=8), Grade 1–2) | TRAE Vomiting (100 mg QD (n=8), Grade 1–2)
3 (100) n (%): Patients with any TRAE (200 mg QD (n=3), Grade 1–2)
1 (33.3) n (%): TRAE AST elevated (200 mg QD (n=3), Grade 1–2) | TRAE Hyperuricemia (200 mg QD (n=3), Grade 1–2)
3 (37.5) n (%): TRAE Nausea (100 mg QD (n=8), Grade 1–2)
6 (75.0) n (%): Patients with any TRAE (100 mg QD (n=8), Grade 1–2)
1 (50.0) n (%): Patients with any TRAE (50 mg QD (n=2), Grade 1–2) | TRAE Diarrhea (50 mg QD (n=2), Grade 1–2)
